The values that follow come from patent US11613546B2, “Substituted pyridotriazine compounds and uses thereof” (Gilead Sciences, Inc., priority 2021, dated 2023).

Common to all, as to format: cell-based
In one series the test system is pLai RLuc reporter virus. Description: HIV MT-4 serum shift antiviral reporter assay. The following applies: Human immunodeficiency virus 1, 72 h. On the procedure:
To quantify the amount of protein binding to human serum, compounds were serially diluted (1:3) in DMSO and acoustically transferred onto 384-well assay plates via a Labcyte ECHO robot. Each plate contained up to 8 test compounds, including negative and positive controls, (DMSO, 5 μM AZT respectively). Assay plates were prepared in duplicate, and tested in either CCM (cell culture media) or HS/CCM (human serum/cell culture media). MT-4 cells were first pre-infected with pLai RLuc reporter virus for 2 h at 37° C., then further diluted in either CCM (RPMI media, 10% FBS, 1% P/S) or HS/CCM (RPMI media, 10% FBS, 50% HS, 1% P/S), and subsequently added to each plate using a Biotek Micro Flow dispenser. After a 72-h incubation in a humidified and temperature controlled incubator (37° C.), Renilla Glo (Promega) was added to all assay plates and chemiluminescence read using an Envision plate-reader. EC50 values were defined as the compound concentration that causes a 50% decrease in luminescence signal, and were calculated using a sigmoidal dose-response model to generate curve fits. To determine the amount of protein binding, EC50 fold shifts (or EC50 shifts) were calculated by dividing EC50 (HS/CCM)/EC50 (CCM).

A short description of series [1]: Cytotoxicity assay in MT-4 cells. The following applies: human. On the procedure: (§1) Compounds were tested in a high-throughput 384-well assay format for their ability to inhibit the replication of HIV-1 (IIIB) in MT-4 cells. Compounds were serially diluted (1:3) in DMSO on 384-well polypropylene plates and further diluted 200-fold into complete RPMI media (10% FBS, 1% P/S) using the Biotek Micro Flow and Labcyte ECHO acoustic dispenser. Each plate contained up to 8 test compounds, with negative (No Drug Control) and 5 μM AZT positive controls. MT-4 cells were pre-infected with 10 μL of either RPMI (mock-infected) or a fresh 1:250 dilution of HIV-1 IIIB concentrated virus stock. Infected and uninfected MT-4 cells were further diluted in complete RPMI media and added to each plate using a Micro Flow dispenser. After 5 days incubation in a humidified and temperature controlled incubator (37° C.), Cell Titer Glo (Promega) was added to the assay plates and chemiluminescence read using an Envision plate-reader. EC50 values were defined as the compound concentration that causes a 50% decrease in luminescence signal, and were calculated using a sigmoidal dose-response model to generate curve fits. Cytotoxicity Assay in MT-4 Cells Assays were performed as above except uninfected MT-4 cells were added to each well containing test compound. In addition, 10 μM puromycin was added to the last column of each assay plate to assess a base level of cytotoxicity.

The next series has as its system HIV-1 (IIIB). Description: Antiviral assay in MT-4 cells. The following applies: Human immunodeficiency virus 1, IIIB, MT4, 120 h, HIV-1 IIIB infected MT-4 cells, 5 days, Cell Titer Glo; read-out: MT4 EC50. The protocol: Antiviral Assay in MT-4 Cells
as §1, with “fits.” for “fits. Cytotoxicity Assay in MT-4 Cells Assays were performed as above except uninfected MT-4 cells were added to each well containing test compound. In addition, 10 μM puromycin was added to the last column of each assay plate to assess a base level of cytotoxicity.”

Where [2] appears, read: read-out: RLUC 50% HS (nM), HS/CCM: 50% human serum, 72 h, Renilla Glo.
The mark [3] stands for this setting: read-out: RLUC CCM (nM), cell culture media (RPMI, 10% FBS), 72 h, Renilla Glo.
Where [4] appears, read: uninfected MT-4 cells, 5 days, Cell Titer Glo, read-out: CC50.

Where two headings read alike, the source gives them in different places.

Turning to `C[C@@H]1C=CCN2CN1n1cc(C(=O)NCc3c(F)cc(F)cc3F)c(=O)c(O)c1C2=O` [Example C70, (1S,2R)-8-hydroxy-2-methyl-7,9-dioxo-N-(2,4,6-trifluorobenzyl)-2,5,7,9-tetrahydro-1,6-methanopyrido[1,2-b][1,2,5]triazonine-10-carboxamide], the EC50 with pLai RLuc reporter virus (setting [2]) stood at 11.5 nM; with pLai RLuc reporter virus (setting [3]), 0.54 nM; in the series with HIV-1 (IIIB), 1.2 nM. Also, the CC50 (as a rule, the concentration giving 50% cytotoxicity) at 5 days in series [1] (setting [4]) stood at 11600 nM.
For `CC[C@@H]1CC[C@H](C)N2CN1n1cc(C(=O)NCc3c(F)cc(F)cc3F)c(=O)c(O)c1C2=O` [Example C73, (1S,2R,5S)-2-ethyl-8-hydroxy-5-methyl-7,9-dioxo-N-(2,4,6-trifluorobenzyl)-2,3,4,5,7,9-hexahydro-1,6-methanopyrido[1,2-b][1,2,5]triazonine-10-carboxamide] the same measures were 276 nM, 0.63 nM, 0.8 nM and 7640 nM.
`CC(C)[C@@H]1C=C[C@H](C)N2CN1n1cc(C(=O)NCc3c(F)cc(F)cc3F)c(=O)c(O)c1C2=O` [Example C74, (1S,2R,5S)-8-hydroxy-2-isopropyl-5-methyl-7,9-dioxo-N-(2,4,6-trifluorobenzyl)-2,5,7,9-tetrahydro-1,6-methanopyrido[1,2-b][1,2,5]triazonine-10-carboxamide]: the EC50 was determined as 325 nM in the series on pLai RLuc reporter virus (setting [2]), 0.47 nM with pLai RLuc reporter virus (setting [3]) and 0.9 nM in the series on HIV-1 (IIIB). Further, in series [1] (setting [4]), the CC50 at 5 days is 6810 nM.
For `CC(C)[C@@H]1CC[C@H](C)N2CN1n1cc(C(=O)NCc3c(F)cc(F)cc3F)c(=O)c(O)c1C2=O` [Example C75, (1S,2S,5S)-8-hydroxy-2-isopropyl-5-methyl-7,9-dioxo-N-(2,4,6-trifluorobenzyl)-2,3,4,5,7,9-hexahydro-1,6-methanopyrido[1,2-b][1,2,5]triazonine-10-carboxamide], the EC50 in the series on pLai RLuc reporter virus (setting [2]) was determined as 277 nM; with pLai RLuc reporter virus (setting [3]), 1.02 nM; in the series with HIV-1 (IIIB) it was 2 nM. Also, the CC50 at 5 days in series [1] (setting [4]) was 10900 nM.
The like results for `C[C@H]1CC[C@@H](CF)N2CN1C(=O)c1c(O)c(=O)c(C(=O)NCc3c(F)cc(F)cc3F)cn12` [Example C77, (1S,2S,5S)-2-(fluoromethyl)-8-hydroxy-5-methyl-7,9-dioxo-N-(2,4,6-trifluorobenzyl)-2,3,4,5,7,9-hexahydro-1,6-methanopyrido[1,2-b][1,2,5]triazonine-10-carboxamide] were, in that order, 296 nM, 1.14 nM, 2 nM and 15700 nM.
Consider `C[C@H]1CC[C@@H](C(F)F)N2CN1C(=O)c1c(O)c(=O)c(C(=O)NCc3ccc(F)cc3F)cn12` [Example C81, (1S,2S,5S)—N-(2,4-difluorobenzyl)-2-(difluoromethyl)-8-hydroxy-5-methyl-7,9-dioxo-2,3,4,5,7,9-hexahydro-1,6-methanopyrido[1,2-b][1,2,5]triazonine-10-carboxamide], for which the EC50 in the series with pLai RLuc reporter virus (setting [2]) came to 723 nM; with pLai RLuc reporter virus (setting [3]), 0.48 nM; with HIV-1 (IIIB), 1.5 nM. Also, the CC50 at 5 days in series [1] (setting [4]) came to 13700 nM.
Regarding `COC[C@@H]1C=C[C@H](C)N2CN1n1cc(C(=O)NCc3ccc(F)cc3F)c(=O)c(O)c1C2=O` [Example C82, (1S,2S,5S)—N-(2,4-difluorobenzyl)-8-hydroxy-2-(methoxymethyl)-5-methyl-7,9-dioxo-2,5,7,9-tetrahydro-1,6-methanopyrido[1,2-b][1,2,5]triazonine-10-carboxamide], the results for the EC50 with pLai RLuc reporter virus (setting [2]), with pLai RLuc reporter virus (setting [3]) and in the series with HIV-1 (IIIB) were 75 nM, 0.73 nM and 1.3 nM, respectively. In series [1] (setting [4]), the CC50 at 5 days was 16800 nM.
The like results for `COC[C@@H]1CC[C@H](C)N2CN1n1cc(C(=O)NCc3ccc(F)cc3F)c(=O)c(O)c1C2=O` [Example C83, (1S,2S,5S)—N-(2,4-difluorobenzyl)-8-hydroxy-2-(methoxymethyl)-5-methyl-7,9-dioxo-2,3,4,5,7,9-hexahydro-1,6-methanopyrido[1,2-b][1,2,5]triazonine-10-carboxamide] were, in that order, 261 nM, 1.97 nM, 3.6 nM and 30500 nM.
In the case of `C[C@H]1CCC2(CCOC2)N2CN1C(=O)c1c(O)c(=O)c(C(=O)NCc3c(F)cc(F)cc3F)cn12` (stereo partly drawn) [Example C86, (1′S,5′S)-8′-hydroxy-5′-methyl-7′,9′-dioxo-N-(2,4,6-trifluorobenzyl)-4,4′,5,5′,7′,9′-hexahydro-2H,3′H-spiro[furan-3,2′-[1,6]methanopyrido[1,2-b][1,2,5]triazonine]-10′-carboxamide], the EC50 worked out at 14.1 nM with pLai RLuc reporter virus (setting [2]), 0.27 nM in the series on pLai RLuc reporter virus (setting [3]) and 0.5 nM with HIV-1 (IIIB). This compound yielded a CC50 at 5 days in series [1] (CC50 (nM)) of 26000 nM.
As to `C[C@@H]1C=CC(C)(C)N2CN1n1cc(C(=O)NCc3ccc(F)cc3F)c(=O)c(O)c1C2=O` [Example C90, (1S,2R)—N-(2,4-difluorobenzyl)-8-hydroxy-2,5,5-trimethyl-7,9-dioxo-2,5,7,9-tetrahydro-1,6-methanopyrido[1,2-b][1,2,5]triazonine-10-carboxamide], the EC50 in the series with pLai RLuc reporter virus (setting [2]) stood at 91.9 nM; with pLai RLuc reporter virus (setting [3]), 0.35 nM; in the series on HIV-1 (IIIB) it was 2 nM. Moreover, the 50% cytotoxic concentration (CC50) at 5 days in series [1] (setting [4]) is 47100 nM.
`C[C@H]1CC[C@@H](CF)N2CN1n1cc(C(=O)NCc3ccc(F)cc3F)c(=O)c(O)c1C2=O` [Example C96, (1R,2S,5S)—N-(2,4-difluorobenzyl)-5-(fluoromethyl)-8-hydroxy-2-methyl-7,9-dioxo-2,3,4,5,7,9-hexahydro-1,6-methanopyrido[1,2-b][1,2,5]triazonine-10-carboxamide]: the EC50 was found to be 958 nM with pLai RLuc reporter virus (setting [2]), 8.27 nM in the series on pLai RLuc reporter virus (setting [3]) and 11.2 nM in the series on HIV-1 (IIIB). The 50% cytotoxic concentration (CC50) at 5 days in series [1] (setting [4]) stood at 5370 nM.
As for `C[C@H]1C=C[C@@H](CF)N2CN1n1cc(C(=O)NCc3ccc(F)cc3F)c(=O)c(O)c1C2=O` [Example C97, (1R,2S,5S)—N-(2,4-difluorobenzyl)-5-(fluoromethyl)-8-hydroxy-2-methyl-7,9-dioxo-2,5,7,9-tetrahydro-1,6-methanopyrido[1,2-b][1,2,5]triazonine-10-carboxamide], the EC50 in the series on pLai RLuc reporter virus (setting [2]) came out at 1730 nM; in the series on pLai RLuc reporter virus (setting [3]), 14.7 nM; with HIV-1 (IIIB) it was 34.9 nM. Moreover, the CC50 at 5 days in series [1] (setting [4]) stood at 9550 nM.
On to `C[C@@H]1CC[C@H](CF)N2CN1n1cc(C(=O)NCc3ccc(F)cc3F)c(=O)c(O)c1C2=O` [Example C98, (1S,2R,5R)—N-(2,4-difluorobenzyl)-5-(fluoromethyl)-8-hydroxy-2-methyl-7,9-dioxo-2,3,4,5,7,9-hexahydro-1,6-methanopyrido[1,2-b][1,2,5]triazonine-10-carboxamide], for which the EC50 is 462 nM in the series with pLai RLuc reporter virus (setting [2]), 1.03 nM with pLai RLuc reporter virus (setting [3]) and 2 nM with HIV-1 (IIIB). In addition, the CC50 at 5 days in series [1] (setting [4]) was 8930 nM.
On to `C[C@@H]1C[C@H](F)[C@H](CF)N2CN1n1cc(C(=O)NCc3c(F)cc(F)cc3F)c(=O)c(O)c1C2=O` [Example C99, (1S,2R,4S,5S)-4-fluoro-5-(fluoromethyl)-8-hydroxy-2-methyl-7,9-dioxo-N-(2,4,6-trifluorobenzyl)-2,3,4,5,7,9-hexahydro-1,6-methanopyrido[1,2-b][1,2,5]triazonine-10-carboxamide], for which the values for the EC50 in the series on pLai RLuc reporter virus (setting [2]), with pLai RLuc reporter virus (setting [3]) and in the series with HIV-1 (IIIB) were 349 nM, 0.52 nM and 1.7 nM, respectively. The CC50 at 5 days in series [1] (setting [4]) turned out to be 9440 nM.
